As a reminder, the IC50 is the concentration that inhibits the measured activity by half.

The values that follow come from ChEMBL document CHEMBL5634163, “Anti-Ferroptotic Effect of Cannabidiol in Human Skin Keratinocytes Characterized by Data-Independent Acquisition-Based Proteomics” (J Nat Prod, 2024).

Calls of active or inactive are those of the source. The calls are words filed in the database; no cut-off is given here. Bounds are passed on as bounds.

The test system of experiment [1] is HaCaT. Kind of experiment: Reversal of erastin-reduced RPL7A level in human HaCaT cells. The class given is functional, cell-based.
For experiment [2], the system named is HaCaT. The experiment in a line: Anti-ferroptotic effect against erastin-induced cytotoxicity in human HaCaT cells assessed as cell viability at 5 uM preincubated for 4 hrs followed by erastin addition measured after 24 hrs by MTT assay (reference value: 23 %). As to conditions: time 28 hrs, read-out: Activity. The class given is functional. On the technique in general: Tetrazolium assays rely on reduction of a dye to a coloured formazan, in cell work by metabolically active cells.

Experiment [3] relates to HaCaT. Kind of experiment: Anti-ferroptotic effect against erastin-induced cytotoxicity in human HaCaT cells assessed as cell viability at 1.25 uM preincubated for 4 hrs followed by erastin addition measured after 24 hrs by MTT assay (reference value: 23 %). The class given is functional. The settings on record: time 28 hrs, read-out: Activity.
Experiment [4] concerns HaCaT. The experiment in a line: Reversal of erastin-induced lipid peroxidation in human HaCaT cells at 0.6 uM preincubated for 4 hrs followed by erastin addition measured after 24 hrs by flow cytometry (reference value: 47 %). The class given is functional. As to conditions: time 28 hrs. For orientation: A flow cytometer gives signals particle by particle.
Experiment [5] has as its system HaCaT. Kind of experiment: Suppression of erastin-induced intracellular Fe2+ level in human HaCaT cells at 2.5 uM preincubated for 24 hrs followed by erastin addition measured after 24 hrs by FerroOrange probe based assay (reference value: 25 %). The experiment is classed as functional. The settings on record: time 48 hrs.
In experiment [6] the test system is HaCaT. The experiment in a line: Effect on GSH level in human HaCaT cells at 2.5 uM. The experiment is classed as functional, cell-based.
A short description of experiment [7]: Antioxidant activity assessed as free radical scavenging activity incubated for 30 mins in dark by DPPH assay. The experiment is classed as functional.
For experiment [8], the system named is HaCaT. The experiment in a line: Reversal of erastin-induced ROS level in human HaCaT cells at 10 uM preincubated for 24.5 hrs followed by erastin addition measured after 4 hrs by DC-FDA probe based assay (reference value: 23 %). The class given is functional. The settings on record: time 28.5 hrs.
Experiment [9] has as its system HaCaT. Kind of experiment: Anti-ferroptotic effect against erastin-induced cytotoxicity in human HaCaT cells assessed as cell viability at 0.63 uM preincubated for 4 hrs followed by erastin addition measured after 24 hrs by MTT assay (reference value: 23 %). The class given is functional. As to conditions: time 28 hrs, read-out: Activity.
Experiment [10] deals with HaCaT. Kind of experiment: Anti-ferroptotic effect against erastin-induced cytotoxicity in human HaCaT cells assessed as cell viability at 0.08 uM preincubated for 4 hrs followed by erastin addition measured after 24 hrs by MTT assay (reference value: 23 %). The experiment is classed as functional. The settings on record: time 28 hrs, read-out: Activity.
For experiment [11], the system named is HaCaT. The experiment in a line: Anti-ferroptotic effect against erastin-induced cytotoxicity in human HaCaT cells assessed as cell viability at 10 uM preincubated for 4 hrs followed by erastin addition measured after 24 hrs by MTT assay (reference value: 23 %). The class given is functional. The settings on record: time 28 hrs, read-out: Activity.
In experiment [12] the test system is HaCaT. Kind of experiment: Suppression of erastin-induced intracellular Fe2+ level in human HaCaT cells at 0.6 uM preincubated for 24 hrs followed by erastin addition measured after 24 hrs by FerroOrange probe based assay (reference value: 25 %). The experiment is classed as functional. As to conditions: time 48 hrs.
Experiment [13] has as its system HaCaT. The experiment in a line: Reversal of erastin-induced FXR2 level in human HaCaT cells. The class given is functional, cell-based.
Experiment [14] relates to HaCaT. Kind of experiment: Anti-ferroptotic effect against erastin-induced cytotoxicity in human HaCaT cells assessed as cell viability at 0.31 uM preincubated for 4 hrs followed by erastin addition measured after 24 hrs by MTT assay (reference value: 23 %). The class given is functional. The settings on record: time 28 hrs, read-out: Activity.
Experiment [15] deals with HaCaT. The experiment in a line: Reversal of erastin-induced ROS level in human HaCaT cells at 0.6 uM preincubated for 24.5 hrs followed by erastin addition measured after 4 hrs by DC-FDA probe based assay (reference value: 23 %). The settings on record: time 28.5 hrs. The experiment is classed as functional.
The subject of experiment [16] is HaCaT. The experiment in a line: Reversal of erastin-induced iron level in human HaCaT cells at 2.5 uM preincubated for 24 hrs followed by erastin addition measured after 24 hrs by FerroOrange probe based assay (reference value: 43 %). The class given is functional. The settings on record: time 48 hrs.
In experiment [17] the test system is HaCaT. The experiment in a line: Reversal of erastin-induced DDX60 level in human HaCaT cells. The experiment is classed as functional, cell-based.
In experiment [18] the test system is HaCaT. Kind of experiment: Anti-ferroptotic effect against erastin-induced cytotoxicity in human HaCaT cells assessed as cell viability at 0.16 uM preincubated for 4 hrs followed by erastin addition measured after 24 hrs by MTT assay (reference value: 23 %). The class given is functional. The settings on record: time 28 hrs, read-out: Activity.
The test system of experiment [19] is HaCaT. The experiment in a line: Anti-ferroptotic effect against erastin-induced cytotoxicity in human HaCaT cells assessed as cell viability at 10 uM preincubated for 4 hrs followed by erastin addition measured after 24 hrs by MTT assay relative to control. The experiment is classed as functional. As to conditions: for viability at 10 µM: time 28 hrs, read-out: Activity; for Activity: time 28.0 hrs.

Experiment [20] can be described thus: Iron-chelating activity of compound at 500 uM incubated for 10 mins by absorbance based assay relative to control. The class given is functional.
The subject of experiment [21] is HaCaT. The experiment in a line: Reversal of erastin-reduced LGALS3 level in human HaCaT cells. The experiment is classed as functional, cell-based.
Experiment [22] deals with HaCaT. The experiment in a line: Reversal of erastin-induced ROS level in human HaCaT cells at 2.5 uM preincubated for 24.5 hrs followed by erastin addition measured after 4 hrs by DC-FDA probe based assay (reference value: 23 %). The experiment is classed as functional. As to conditions: time 28.5 hrs.
For experiment [23], the system named is HaCaT. Kind of experiment: Reversal of erastin-induced iron level in human HaCaT cells at 10 uM preincubated for 24 hrs followed by erastin addition measured after 24 hrs by FerroOrange probe based assay (reference value: 43 %). The settings on record: time 48 hrs. The class given is functional.
For experiment [24], the system named is HaCaT. The experiment in a line: Reversal of erastin-induced LIG3 level in human HaCaT cells. The experiment is classed as functional, cell-based.
In experiment [25] the test system is HaCaT. The experiment in a line: Anti-ferroptotic effect against erastin-induced cytotoxicity in human HaCaT cells assessed as cell viability at 2.5 uM preincubated for 4 hrs followed by erastin addition measured after 24 hrs by MTT assay (reference value: 23 %). The experiment is classed as functional. As to conditions: time 28 hrs, read-out: Activity.
The subject of experiment [26] is HaCaT. Kind of experiment: Reversal of erastin-induced lipid peroxidation in human HaCaT cells at 10 uM preincubated for 4 hrs followed by erastin addition measured after 24 hrs by flow cytometry (reference value: 47 %). The experiment is classed as functional. As to conditions: time 28 hrs.
The test system of experiment [27] is HaCaT. Kind of experiment: Reversal of erastin-induced lipid peroxidation in human HaCaT cells at 2.5 uM preincubated for 4 hrs followed by erastin addition measured after 24 hrs by flow cytometry (reference value: 47 %). The experiment is classed as functional. As to conditions: time 28 hrs.
In experiment [28] the test system is HaCaT. Kind of experiment: Reversal of erastin-reduced CSNK2B level in human HaCaT cells. The class given is functional, cell-based.
A short description of experiment [29]: Antioxidant activity assessed as free radical scavenging activity at 100 uM incubated for 30 mins in dark by DPPH assay relative to control. The class given is functional. For orientation: DPPH is a stable violet radical that fades when it is reduced.
Experiment [30] has as its system HaCaT. The experiment in a line: Suppression of erastin-induced intracellular Fe2+ level in human HaCaT cells at 10 uM preincubated for 24 hrs followed by erastin addition measured after 24 hrs by FerroOrange probe based assay (reference value: 25 %). The class given is functional. The settings on record: time 48 hrs.

Regarding `C=C(C)[C@@H]1CCC(C)=C[C@H]1c1c(O)cc(CCCCC)cc1O` [CANNABIDIOL], the outcome in the experiment on HaCaT [1], in the experiment on HaCaT [13], with HaCaT [17], in the experiment on HaCaT [21], in the experiment on HaCaT [24] and in the experiment with HaCaT [28] was Active. Further, the viability at 5 µM in the experiment with HaCaT [2] worked out at 71%. Besides, the viability at 1.25 µM in the experiment with HaCaT [3] came out at 67%. The Activity was 39% with HaCaT [4]; 12% in the experiment on HaCaT [5]; 26% in the experiment on HaCaT [8]; 10% in the experiment on HaCaT [12]; 10% in the experiment with HaCaT [15]; 15% in the experiment with HaCaT [16]. For the same compound, the Activity in experiment [20] was < 5%; in the experiment on HaCaT [22] it was 14%; in the experiment with HaCaT [23] it was 17%; with HaCaT [26], 40%; in the experiment with HaCaT [27], 44%. Further, in the experiment with HaCaT [6], the result was inactive. For the same compound, the IC50 in [7] is 33.3 µM. For the same compound, the viability at 0.63 µM in the experiment on HaCaT [9] worked out at 52%. In addition, in the experiment on HaCaT [10], the viability at 0.08 µM turned out to be 29%. Moreover, the viability at 10 µM with HaCaT [11] is 68%; in the experiment on HaCaT [19], 76%. Besides, the viability at 0.31 µM in the experiment with HaCaT [14] turned out to be 45%. In addition, the viability at 0.16 µM in the experiment with HaCaT [18] worked out at 36%. For the same compound, the viability at 2.5 µM in the experiment on HaCaT [25] was 74%.
As to `CC1=C(/C=C/C(C)=C/C=C/C(C)=C/CO)C(C)(C)CCC1`, the outcome in the experiment with HaCaT [19] was inactive. In addition, the Activity stood at 87% in [20] and 18% in experiment [29].
With `CCOC(=O)c1ccc(NC2CCCCC2)c(N)c1`, the viability at 10 µM in the experiment with HaCaT [11] came to 66%.
With `O=c1c(O)c(-c2ccc(O)c(O)c2)oc2cc(O)ccc12` [FISETIN], the Activity was found to be 32% with HaCaT [30]; 11% with HaCaT [8]; 60% in experiment [20]; 14% in the experiment on HaCaT [23]; 40% in the experiment with HaCaT [26]. Further, the IC50 in [7] came to 10.1 µM. Further, the viability at 10 µM in the experiment on HaCaT [19] stood at 37%.
For `O=C1O[C@H]([C@@H](O)CO)C(O)=C1O` [ASCORBIC ACID], in [7], the IC50 was determined as 15.9 µM. Moreover, the result in the experiment with HaCaT [19] was inactive. Also, in [20], the Activity was < 5%.
